Conditions in all cases: Compound concentration 10 µM
Assay [1] concerns the target D(2) dopamine receptor (Homo sapiens) (UniProt P14416).
Description: PDSP Primary Binding target: DRD2 - Compounds are tested at 10 uM concentration, plate are incubated at room temperature in the dark for 90 minutes. Reaction are stopped by vacuum filtration onto 0.3% polyethyleneimine soaked filter mats using Filtermate harvester. Scintilation cocktail is then melted onto microwave-dried filters on a hot plate and the radio activity is counted in Microbia counter.
The target in assay [2] is Kappa-type opioid receptor (Homo sapiens) (UniProt P41145).
Description: PDSP Primary Binding target: OPRK1 - Compounds are tested at 10 uM concentration, plate are incubated at room temperature in the dark for 90 minutes. Reaction are stopped by vacuum filtration onto 0.3% polyethyleneimine soaked filter mats using Filtermate harvester. Scintilation cocktail is then melted onto microwave-dried filters on a hot plate and the radio activity is counted in Microbia counter.
Assay [3] deals with Sigma non-opioid intracellular receptor 1 (Homo sapiens) (UniProt Q99720).
Description: PDSP Primary Binding target: SIGMAR1 - Compounds are tested at 10 uM concentration, plate are incubated at room temperature in the dark for 90 minutes. Reaction are stopped by vacuum filtration onto 0.3% polyethyleneimine soaked filter mats using Filtermate harvester. Scintilation cocktail is then melted onto microwave-dried filters on a hot plate and the radio activity is counted in Microbia counter.
Assay [4] concerns the target Histamine H3 receptor (Homo sapiens) (UniProt Q9Y5N1).
Description: PDSP Primary Binding target: HRH3 - Compounds are tested at 10 uM concentration, plate are incubated at room temperature in the dark for 90 minutes. Reaction are stopped by vacuum filtration onto 0.3% polyethyleneimine soaked filter mats using Filtermate harvester. Scintilation cocktail is then melted onto microwave-dried filters on a hot plate and the radio activity is counted in Microbia counter.
Assay [5] addresses 5-hydroxytryptamine receptor 2A (Homo sapiens) (UniProt P28223).
Description: PDSP Primary Binding target: HTR2A - Compounds are tested at 10 uM concentration, plate are incubated at room temperature in the dark for 90 minutes. Reaction are stopped by vacuum filtration onto 0.3% polyethyleneimine soaked filter mats using Filtermate harvester. Scintilation cocktail is then melted onto microwave-dried filters on a hot plate and the radio activity is counted in Microbia counter.
Assay [6] has as its target Sigma intracellular receptor 2 (Homo sapiens) (UniProt Q5BJF2).
Description: PDSP Primary Binding target: TMEM97 - Compounds are tested at 10 uM concentration, plate are incubated at room temperature in the dark for 90 minutes. Reaction are stopped by vacuum filtration onto 0.3% polyethyleneimine soaked filter mats using Filtermate harvester. Scintilation cocktail is then melted onto microwave-dried filters on a hot plate and the radio activity is counted in Microbia counter.
In assay [7] the target is T1, Alpha-2C adrenergic receptor (Homo sapiens) (UniProt P18825).
T1 sequence (whole entry): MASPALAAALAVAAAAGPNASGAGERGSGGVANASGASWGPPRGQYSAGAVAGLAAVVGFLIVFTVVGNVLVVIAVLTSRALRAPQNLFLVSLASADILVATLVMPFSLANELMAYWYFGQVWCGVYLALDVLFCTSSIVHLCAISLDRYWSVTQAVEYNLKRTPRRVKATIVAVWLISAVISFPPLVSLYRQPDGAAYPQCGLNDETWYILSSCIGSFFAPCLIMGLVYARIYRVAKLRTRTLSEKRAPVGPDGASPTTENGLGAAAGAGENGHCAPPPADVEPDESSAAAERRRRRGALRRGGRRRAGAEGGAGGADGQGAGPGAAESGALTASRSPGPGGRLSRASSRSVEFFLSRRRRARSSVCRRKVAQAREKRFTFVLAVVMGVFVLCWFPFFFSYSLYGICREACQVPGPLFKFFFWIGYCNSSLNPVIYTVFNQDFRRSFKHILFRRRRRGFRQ
Description: PDSP Primary Binding target: ADRA2C - Compounds are tested at 10 uM concentration, plate are incubated at room temperature in the dark for 90 minutes. Reaction are stopped by vacuum filtration onto 0.3% polyethyleneimine soaked filter mats using Filtermate harvester. Scintilation cocktail is then melted onto microwave-dried filters on a hot plate and the radio activity is counted in Microbia counter.

Assay [8] deals with T2, Muscarinic acetylcholine receptor M2 (Homo sapiens) (UniProt P08172).
T2 sequence (whole entry): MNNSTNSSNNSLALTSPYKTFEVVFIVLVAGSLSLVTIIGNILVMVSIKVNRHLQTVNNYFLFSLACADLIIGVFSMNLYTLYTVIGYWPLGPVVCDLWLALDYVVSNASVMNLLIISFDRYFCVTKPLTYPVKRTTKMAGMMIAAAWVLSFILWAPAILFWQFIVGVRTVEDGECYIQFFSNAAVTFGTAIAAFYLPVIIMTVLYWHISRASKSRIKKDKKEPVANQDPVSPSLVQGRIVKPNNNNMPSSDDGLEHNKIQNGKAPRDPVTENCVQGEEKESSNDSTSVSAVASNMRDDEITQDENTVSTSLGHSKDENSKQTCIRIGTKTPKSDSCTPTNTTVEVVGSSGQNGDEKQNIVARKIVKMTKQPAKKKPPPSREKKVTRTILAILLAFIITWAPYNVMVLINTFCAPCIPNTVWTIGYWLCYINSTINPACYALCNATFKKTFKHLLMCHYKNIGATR
Description: PDSP Primary Binding target: CHRM2 - Compounds are tested at 10 uM concentration, plate are incubated at room temperature in the dark for 90 minutes. Reaction are stopped by vacuum filtration onto 0.3% polyethyleneimine soaked filter mats using Filtermate harvester. Scintilation cocktail is then melted onto microwave-dried filters on a hot plate and the radio activity is counted in Microbia counter.

Assay [9] has as its target T3, 5-hydroxytryptamine receptor 3A (Homo sapiens) (UniProt P46098).
T3 sequence (whole entry): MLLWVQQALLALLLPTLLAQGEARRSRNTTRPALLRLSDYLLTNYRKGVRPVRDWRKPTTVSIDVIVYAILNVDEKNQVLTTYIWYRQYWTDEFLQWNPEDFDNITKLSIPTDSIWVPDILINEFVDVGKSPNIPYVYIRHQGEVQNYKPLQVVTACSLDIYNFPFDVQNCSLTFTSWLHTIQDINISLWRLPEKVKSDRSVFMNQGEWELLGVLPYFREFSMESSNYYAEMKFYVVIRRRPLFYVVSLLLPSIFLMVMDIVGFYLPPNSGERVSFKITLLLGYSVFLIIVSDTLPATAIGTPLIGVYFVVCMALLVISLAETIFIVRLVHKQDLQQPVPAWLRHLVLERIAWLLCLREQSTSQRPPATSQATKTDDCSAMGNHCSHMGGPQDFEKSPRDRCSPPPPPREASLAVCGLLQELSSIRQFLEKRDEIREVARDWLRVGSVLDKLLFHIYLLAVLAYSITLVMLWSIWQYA
Description: PDSP Primary Binding target: HTR3A - Compounds are tested at 10 uM concentration, plate are incubated at room temperature in the dark for 90 minutes. Reaction are stopped by vacuum filtration onto 0.3% polyethyleneimine soaked filter mats using Filtermate harvester. Scintilation cocktail is then melted onto microwave-dried filters on a hot plate and the radio activity is counted in Microbia counter.

The target of assay [10] is D(1A) dopamine receptor (Homo sapiens) (UniProt P21728).
D(1A) dopamine receptor (Homo sapiens), sequence (P21728 whole entry): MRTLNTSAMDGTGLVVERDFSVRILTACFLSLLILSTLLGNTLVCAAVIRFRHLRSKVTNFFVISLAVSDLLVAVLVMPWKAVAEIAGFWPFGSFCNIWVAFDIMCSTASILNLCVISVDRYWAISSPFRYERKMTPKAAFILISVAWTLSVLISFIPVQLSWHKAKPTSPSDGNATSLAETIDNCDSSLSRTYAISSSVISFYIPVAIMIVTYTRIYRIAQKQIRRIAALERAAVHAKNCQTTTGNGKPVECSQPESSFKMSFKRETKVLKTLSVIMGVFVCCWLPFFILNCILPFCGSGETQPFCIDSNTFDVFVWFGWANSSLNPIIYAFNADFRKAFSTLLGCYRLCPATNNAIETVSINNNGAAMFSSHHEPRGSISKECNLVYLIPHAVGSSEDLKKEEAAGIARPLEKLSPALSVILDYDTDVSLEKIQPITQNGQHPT
Description: PDSP Primary Binding target: DRD1 - Compounds are tested at 10 uM concentration, plate are incubated at room temperature in the dark for 90 minutes. Reaction are stopped by vacuum filtration onto 0.3% polyethyleneimine soaked filter mats using Filtermate harvester. Scintilation cocktail is then melted onto microwave-dried filters on a hot plate and the radio activity is counted in Microbia counter.
The target of assay [11] is 5-hydroxytryptamine receptor 1E (Homo sapiens) (UniProt P28566).
5-hydroxytryptamine receptor 1E (Homo sapiens), sequence (P28566 whole entry): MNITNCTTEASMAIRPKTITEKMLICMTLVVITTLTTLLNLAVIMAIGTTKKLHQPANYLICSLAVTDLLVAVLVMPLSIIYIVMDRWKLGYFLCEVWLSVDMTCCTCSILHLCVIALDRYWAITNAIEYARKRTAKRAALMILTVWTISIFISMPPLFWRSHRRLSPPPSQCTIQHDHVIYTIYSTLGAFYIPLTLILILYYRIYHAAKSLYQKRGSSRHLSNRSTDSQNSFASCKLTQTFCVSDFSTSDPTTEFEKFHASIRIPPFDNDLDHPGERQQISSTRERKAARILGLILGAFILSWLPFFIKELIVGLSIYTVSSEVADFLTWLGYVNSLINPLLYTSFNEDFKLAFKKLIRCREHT
Description: PDSP Primary Binding target: HTR1E - Compounds are tested at 10 uM concentration, plate are incubated at room temperature in the dark for 90 minutes. Reaction are stopped by vacuum filtration onto 0.3% polyethyleneimine soaked filter mats using Filtermate harvester. Scintilation cocktail is then melted onto microwave-dried filters on a hot plate and the radio activity is counted in Microbia counter.
Assay [12] deals with Delta-type opioid receptor (Homo sapiens) (UniProt P41143).
Delta-type opioid receptor (Homo sapiens), sequence (P41143 whole entry): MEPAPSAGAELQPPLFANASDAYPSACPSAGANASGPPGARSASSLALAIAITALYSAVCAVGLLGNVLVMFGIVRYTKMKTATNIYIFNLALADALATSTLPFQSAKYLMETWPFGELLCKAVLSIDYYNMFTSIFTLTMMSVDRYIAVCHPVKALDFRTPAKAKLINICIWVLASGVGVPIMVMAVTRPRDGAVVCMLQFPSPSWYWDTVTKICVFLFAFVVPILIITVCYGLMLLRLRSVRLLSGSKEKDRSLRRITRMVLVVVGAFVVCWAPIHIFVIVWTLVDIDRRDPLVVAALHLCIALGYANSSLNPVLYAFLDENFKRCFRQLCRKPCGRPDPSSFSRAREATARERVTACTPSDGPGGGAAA
Description: PDSP Primary Binding target: OPRD1 - Compounds are tested at 10 uM concentration, plate are incubated at room temperature in the dark for 90 minutes. Reaction are stopped by vacuum filtration onto 0.3% polyethyleneimine soaked filter mats using Filtermate harvester. Scintilation cocktail is then melted onto microwave-dried filters on a hot plate and the radio activity is counted in Microbia counter.
Assay [13] concerns the target T4, Alpha-1A adrenergic receptor (Homo sapiens) (UniProt P35348).
T4 sequence (whole entry): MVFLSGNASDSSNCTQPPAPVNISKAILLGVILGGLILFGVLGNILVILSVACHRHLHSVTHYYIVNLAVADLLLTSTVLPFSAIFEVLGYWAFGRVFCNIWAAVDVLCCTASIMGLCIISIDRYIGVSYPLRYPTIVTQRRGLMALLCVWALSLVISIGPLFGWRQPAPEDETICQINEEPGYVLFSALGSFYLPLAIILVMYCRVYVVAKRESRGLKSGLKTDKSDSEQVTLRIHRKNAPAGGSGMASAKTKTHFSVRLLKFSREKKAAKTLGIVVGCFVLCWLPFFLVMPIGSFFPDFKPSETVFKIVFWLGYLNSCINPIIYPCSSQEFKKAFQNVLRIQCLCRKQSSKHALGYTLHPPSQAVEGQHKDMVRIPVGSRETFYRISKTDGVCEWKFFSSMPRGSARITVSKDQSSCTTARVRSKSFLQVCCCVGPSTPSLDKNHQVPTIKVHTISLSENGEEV
Description: PDSP Primary Binding target: ADRA1A - Compounds are tested at 10 uM concentration, plate are incubated at room temperature in the dark for 90 minutes. Reaction are stopped by vacuum filtration onto 0.3% polyethyleneimine soaked filter mats using Filtermate harvester. Scintilation cocktail is then melted onto microwave-dried filters on a hot plate and the radio activity is counted in Microbia counter.

Assay [14] has as its target 5-hydroxytryptamine receptor 6 (Homo sapiens) (UniProt P50406).
Description: PDSP Primary Binding target: HTR6 - Compounds are tested at 10 uM concentration, plate are incubated at room temperature in the dark for 90 minutes. Reaction are stopped by vacuum filtration onto 0.3% polyethyleneimine soaked filter mats using Filtermate harvester. Scintilation cocktail is then melted onto microwave-dried filters on a hot plate and the radio activity is counted in Microbia counter.
The target in assay [15] is Beta-1 adrenergic receptor (Homo sapiens) (UniProt P08588).
Description: PDSP Primary Binding target: ADRB1 - Compounds are tested at 10 uM concentration, plate are incubated at room temperature in the dark for 90 minutes. Reaction are stopped by vacuum filtration onto 0.3% polyethyleneimine soaked filter mats using Filtermate harvester. Scintilation cocktail is then melted onto microwave-dried filters on a hot plate and the radio activity is counted in Microbia counter.
Assay [16] concerns the target D(1B) dopamine receptor (Homo sapiens) (UniProt P21918).
Description: PDSP Primary Binding target: DRD5 - Compounds are tested at 10 uM concentration, plate are incubated at room temperature in the dark for 90 minutes. Reaction are stopped by vacuum filtration onto 0.3% polyethyleneimine soaked filter mats using Filtermate harvester. Scintilation cocktail is then melted onto microwave-dried filters on a hot plate and the radio activity is counted in Microbia counter.
The target of assay [17] is 5-hydroxytryptamine receptor 1B (Homo sapiens) (UniProt P28222).
5-hydroxytryptamine receptor 1B (Homo sapiens), sequence (P28222 whole entry): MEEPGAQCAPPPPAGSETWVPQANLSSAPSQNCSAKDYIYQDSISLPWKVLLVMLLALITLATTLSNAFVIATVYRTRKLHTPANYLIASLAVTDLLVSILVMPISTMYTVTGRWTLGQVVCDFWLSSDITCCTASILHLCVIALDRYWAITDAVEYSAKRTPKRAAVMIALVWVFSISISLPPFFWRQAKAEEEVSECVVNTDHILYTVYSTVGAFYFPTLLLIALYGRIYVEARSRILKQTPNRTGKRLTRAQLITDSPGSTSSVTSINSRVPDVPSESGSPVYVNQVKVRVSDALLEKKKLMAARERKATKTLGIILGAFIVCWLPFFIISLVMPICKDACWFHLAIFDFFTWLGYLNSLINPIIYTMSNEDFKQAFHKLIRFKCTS
Description: PDSP Primary Binding target: HTR1B - Compounds are tested at 10 uM concentration, plate are incubated at room temperature in the dark for 90 minutes. Reaction are stopped by vacuum filtration onto 0.3% polyethyleneimine soaked filter mats using Filtermate harvester. Scintilation cocktail is then melted onto microwave-dried filters on a hot plate and the radio activity is counted in Microbia counter.
Assay [18] concerns the target 5-hydroxytryptamine receptor 7 (Homo sapiens) (UniProt P34969).
Description: PDSP Primary Binding target: HTR7 - Compounds are tested at 10 uM concentration, plate are incubated at room temperature in the dark for 90 minutes. Reaction are stopped by vacuum filtration onto 0.3% polyethyleneimine soaked filter mats using Filtermate harvester. Scintilation cocktail is then melted onto microwave-dried filters on a hot plate and the radio activity is counted in Microbia counter.
The target of assay [19] is Translocator protein (Homo sapiens) (UniProt P30536).
Translocator protein (Homo sapiens), sequence (P30536 whole entry): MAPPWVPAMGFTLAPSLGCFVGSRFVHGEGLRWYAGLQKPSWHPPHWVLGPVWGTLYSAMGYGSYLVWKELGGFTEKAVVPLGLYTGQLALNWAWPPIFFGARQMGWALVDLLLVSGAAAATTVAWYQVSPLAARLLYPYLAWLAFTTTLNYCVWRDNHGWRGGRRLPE
Description: PDSP Primary Binding target: TSPO - Compounds are tested at 10 uM concentration, plate are incubated at room temperature in the dark for 90 minutes. Reaction are stopped by vacuum filtration onto 0.3% polyethyleneimine soaked filter mats using Filtermate harvester. Scintilation cocktail is then melted onto microwave-dried filters on a hot plate and the radio activity is counted in Microbia counter.

Usually inhibition stands for the relative decrease from the control value, in per cent.

Sigma non-opioid intracellular receptor 1 (Homo sapiens), sequence (Q99720 whole entry): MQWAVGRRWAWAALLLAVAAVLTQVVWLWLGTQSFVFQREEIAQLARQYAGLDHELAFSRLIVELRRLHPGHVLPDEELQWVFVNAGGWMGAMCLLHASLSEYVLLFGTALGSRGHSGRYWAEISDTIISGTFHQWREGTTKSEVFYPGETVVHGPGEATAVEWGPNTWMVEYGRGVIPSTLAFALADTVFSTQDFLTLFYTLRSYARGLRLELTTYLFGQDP
D(2) dopamine receptor (Homo sapiens), sequence (P14416 whole entry): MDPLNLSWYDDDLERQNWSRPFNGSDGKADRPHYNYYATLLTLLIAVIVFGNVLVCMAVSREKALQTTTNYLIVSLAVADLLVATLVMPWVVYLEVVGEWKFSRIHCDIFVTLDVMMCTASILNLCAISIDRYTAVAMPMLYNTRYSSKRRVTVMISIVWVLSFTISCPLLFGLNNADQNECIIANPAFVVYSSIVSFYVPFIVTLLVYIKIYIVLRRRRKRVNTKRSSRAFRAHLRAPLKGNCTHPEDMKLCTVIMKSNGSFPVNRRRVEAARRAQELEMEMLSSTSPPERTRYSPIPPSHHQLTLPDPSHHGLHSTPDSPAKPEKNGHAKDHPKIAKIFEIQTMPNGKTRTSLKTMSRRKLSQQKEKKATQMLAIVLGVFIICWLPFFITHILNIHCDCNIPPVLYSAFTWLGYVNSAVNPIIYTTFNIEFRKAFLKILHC
D(1B) dopamine receptor (Homo sapiens), sequence (P21918 whole entry): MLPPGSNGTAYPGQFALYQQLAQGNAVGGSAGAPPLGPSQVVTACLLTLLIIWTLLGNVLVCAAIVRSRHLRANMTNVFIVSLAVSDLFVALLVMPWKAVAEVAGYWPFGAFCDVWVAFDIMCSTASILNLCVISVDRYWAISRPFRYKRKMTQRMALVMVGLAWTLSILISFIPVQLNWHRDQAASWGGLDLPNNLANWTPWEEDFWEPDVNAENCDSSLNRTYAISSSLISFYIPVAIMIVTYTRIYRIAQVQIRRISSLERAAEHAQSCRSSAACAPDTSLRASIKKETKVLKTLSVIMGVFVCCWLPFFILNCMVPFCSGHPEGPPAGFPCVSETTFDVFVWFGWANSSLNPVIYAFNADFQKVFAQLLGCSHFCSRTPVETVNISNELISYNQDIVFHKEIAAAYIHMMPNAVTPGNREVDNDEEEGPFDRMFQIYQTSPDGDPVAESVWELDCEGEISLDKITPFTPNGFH
Sigma intracellular receptor 2 (Homo sapiens), sequence (Q5BJF2 whole entry): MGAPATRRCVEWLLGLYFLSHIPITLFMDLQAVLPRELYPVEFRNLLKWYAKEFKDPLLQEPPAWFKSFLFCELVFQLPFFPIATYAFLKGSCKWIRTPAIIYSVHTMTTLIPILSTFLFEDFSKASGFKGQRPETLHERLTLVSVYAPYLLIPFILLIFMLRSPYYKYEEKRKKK
Kappa-type opioid receptor (Homo sapiens), sequence (P41145 whole entry): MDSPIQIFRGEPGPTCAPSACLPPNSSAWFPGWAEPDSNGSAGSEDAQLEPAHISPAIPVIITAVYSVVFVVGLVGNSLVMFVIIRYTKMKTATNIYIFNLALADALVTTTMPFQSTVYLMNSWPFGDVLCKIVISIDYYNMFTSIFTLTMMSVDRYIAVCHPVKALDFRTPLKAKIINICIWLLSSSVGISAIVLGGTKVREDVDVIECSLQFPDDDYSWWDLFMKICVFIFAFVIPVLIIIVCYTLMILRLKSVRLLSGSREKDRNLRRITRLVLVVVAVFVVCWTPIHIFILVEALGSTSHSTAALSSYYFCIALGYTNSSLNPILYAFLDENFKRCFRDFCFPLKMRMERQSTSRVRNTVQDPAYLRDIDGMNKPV
5-hydroxytryptamine receptor 6 (Homo sapiens), sequence (P50406 whole entry): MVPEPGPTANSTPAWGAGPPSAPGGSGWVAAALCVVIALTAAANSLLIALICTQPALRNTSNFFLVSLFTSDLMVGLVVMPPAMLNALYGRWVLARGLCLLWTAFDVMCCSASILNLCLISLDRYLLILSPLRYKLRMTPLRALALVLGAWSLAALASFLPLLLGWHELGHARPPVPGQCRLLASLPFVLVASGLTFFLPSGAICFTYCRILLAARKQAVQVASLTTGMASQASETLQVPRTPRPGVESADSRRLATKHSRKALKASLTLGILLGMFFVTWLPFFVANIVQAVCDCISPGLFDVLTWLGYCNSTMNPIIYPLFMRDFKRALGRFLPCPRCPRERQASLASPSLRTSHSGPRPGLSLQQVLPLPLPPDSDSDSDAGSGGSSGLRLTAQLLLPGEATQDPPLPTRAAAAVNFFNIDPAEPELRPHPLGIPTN
5-hydroxytryptamine receptor 2A (Homo sapiens), sequence (P28223 whole entry): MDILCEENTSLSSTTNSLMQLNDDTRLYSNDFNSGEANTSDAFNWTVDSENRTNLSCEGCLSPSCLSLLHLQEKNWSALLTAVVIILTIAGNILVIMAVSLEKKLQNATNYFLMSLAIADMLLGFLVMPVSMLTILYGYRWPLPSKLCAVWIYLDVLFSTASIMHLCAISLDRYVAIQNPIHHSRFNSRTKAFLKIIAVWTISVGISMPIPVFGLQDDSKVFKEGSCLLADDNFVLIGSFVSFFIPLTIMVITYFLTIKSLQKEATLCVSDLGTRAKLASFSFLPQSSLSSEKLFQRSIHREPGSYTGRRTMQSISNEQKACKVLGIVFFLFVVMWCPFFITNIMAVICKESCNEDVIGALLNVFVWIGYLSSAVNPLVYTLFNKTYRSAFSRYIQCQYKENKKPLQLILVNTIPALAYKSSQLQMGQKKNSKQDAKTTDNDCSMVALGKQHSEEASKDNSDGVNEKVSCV
Histamine H3 receptor (Homo sapiens), sequence (Q9Y5N1 whole entry): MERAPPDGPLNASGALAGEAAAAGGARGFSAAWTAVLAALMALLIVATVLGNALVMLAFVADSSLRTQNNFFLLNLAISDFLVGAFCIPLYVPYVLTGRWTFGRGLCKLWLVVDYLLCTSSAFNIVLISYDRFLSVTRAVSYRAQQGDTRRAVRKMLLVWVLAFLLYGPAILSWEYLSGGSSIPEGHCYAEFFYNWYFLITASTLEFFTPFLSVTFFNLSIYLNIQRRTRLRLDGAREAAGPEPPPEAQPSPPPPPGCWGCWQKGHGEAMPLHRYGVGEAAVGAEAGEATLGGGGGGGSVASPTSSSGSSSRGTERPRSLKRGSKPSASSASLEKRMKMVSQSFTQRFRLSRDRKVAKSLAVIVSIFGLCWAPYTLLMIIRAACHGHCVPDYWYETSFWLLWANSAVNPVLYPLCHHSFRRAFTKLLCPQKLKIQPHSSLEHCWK

As to `CCOC(=O)c1cc(C#N)c(N2CCC(C(=O)NS(=O)(=O)Cc3ccccc3)CC2)nc1C`, the inhibition in [1] was 13.7%; in [2] it was 3.74%; in assay [3], 44.3%; in assay [4], 15%; in [5], 5.11%; in [6], 4.45%. For the same compound, the inhibition in assay [7] is -0.84%; in assay [8], 68.1%; in [9] it was 3.98%; in assay [10], 0.26%; in [11], -8.79%; in assay [12], -8.38%. Moreover, the values for the inhibition in assay [13] and in [14] were 33.7% and 9.24%, respectively.

On to `COc1ccc2[nH]cc(CCNC(C)=O)c2c1`, for which the inhibition in assay [1] was 32.8%; in assay [3], 29.1%; in [4] it was -7.94%; in assay [6], 22.1%; in assay [15], 12%; in assay [16], 6.12%. Besides, the inhibition was -3.39% in assay [9]; 12.5% in assay [17]; 13.1% in assay [10]; -3.9% in assay [12]; -7.65% in assay [18]; -4.46% in [13].

Regarding `CC1CCN(CC[C@H]2CCCN2S(=O)(=O)c2cccc(O)c2)CC1`, the inhibition is 33.5% in [1]; 50.4% in [2]; -8.64% in assay [3]; -4.13% in assay [4]; 28.8% in assay [5]; 98.2% in [6]. Moreover, the inhibition was 51.5% in assay [7]; 9.71% in [15]; 85.1% in assay [16]; -9.3% in [9]; 78.2% in assay [17]; -5.94% in [10]. Further, the inhibition in assay [11] was 7.28%; in [12] it was 7.91%; in [19], -7.14%; in assay [18], 85.8%.

As to `CC(C)NC(=O)c1ccc(C#Cc2ccncc2)cn1`, the inhibition in [1] is -3.71%; in assay [2], -1.6%; in assay [3] it was 68.4%; in [5], 4.54%; in [6] it was 8.09%; in [8] it was 53.1%. Moreover, the inhibition is -5.94% in assay [9]; -1.26% in assay [11]; -3.71% in assay [12]; -5.19% in assay [13]; -2.79% in assay [14].

For the compound `O=C1O[C@]2(CC[C@H](C(=O)Nc3ccn(-c4ccccc4F)n3)CC2)c2cnccc21`, the inhibition is 10.1% in assay [1]; -6.46% in assay [2]; 4.97% in [3]; 2.41% in [4]; 22.2% in assay [5]; -5.33% in [6]. The inhibition in [8] was -5.81%; in assay [16] it was -8.27%; in assay [17] it was -3.32%; in assay [11], 5.31%; in [12], -5.86%; in assay [19] it was 1.2%. Moreover, in assay [14], the inhibition is 0.42%.

For the compound `Cc1cc(C)c(N)c(C#Cc2cccc(F)c2)n1`, the inhibition in [1] is 0.33%; in [2] it was 18.4%; in assay [3], 3.28%; in assay [4] it was -8.58%; in assay [5], 5.87%; in assay [6], 15.9%. Further, the inhibition in assay [7] is 13.5%; in assay [15], -7.35%; in [16], 0.26%; in [9] it was -2.76%; in assay [17], 16.6%; in assay [10] it was 17.1%. Further, the inhibition was 20.1% in assay [11]; -1.56% in assay [12]; 39.6% in assay [19]; 7.78% in assay [18]; 10.2% in [13]; 16.2% in assay [14].

In the case of `Clc1ccc(CCCOCCCN2CCCCC2)cc1`, the inhibition in [1] is 6.98%; in assay [2], 40.4%; in assay [3], 99.5%; in assay [4], 79.8%; in assay [5] it was 28.5%; in assay [6], 98.7%. For the same compound, the inhibition is 49.4% in assay [7]; 34.5% in assay [8]; 28.6% in assay [9]; 12.1% in [17]; 12.1% in [10]; 17.3% in assay [11]. In addition, the inhibition was -1.15% in assay [12]; -6.49% in assay [19]; 63.3% in [18]; -2.04% in assay [13]; 39.1% in assay [14].

For `CC(C)Oc1ccccc1C(=O)Nc1ccccc1C(=O)Nc1cccc(S(=O)(=O)C(F)(F)F)c1`, the inhibition in [1] is 7.06%; in [4] it was -5.72%; in assay [5], 87.8%; in assay [6] it was -6.23%; in [8] it was -6.99%; in [16], 4.49%. Besides, the inhibition in assay [9] is -3.89%; in [11], -4.72%; in assay [12] it was -2.57%; in assay [19] it was 66.1%; in assay [18] it was -3.5%; in assay [13] it was -8.65%. The inhibition in assay [14] was 36.8%.

On to `COC(=O)[C@H]1[C@H]2C[C@H]3c4[nH]c5ccccc5c4CCN3C[C@H]2CC[C@@H]1O`, for which the inhibition in assay [1] is 49.4%; in assay [2], 19%; in [3], 63.2%; in assay [4] it was 7.16%; in assay [6] it was 22.8%; in assay [7], 98.7%. Moreover, the inhibition in [15] was 6.36%; in assay [16] it was 11.8%; in assay [9], -2.94%; in assay [17] it was 98.4%; in [10] it was 32.4%; in assay [11], 96%. In addition, the inhibition in assay [12] was -0.55%; in assay [19], 7.14%; in [18] it was 85.2%; in assay [13], 66.2%; in [14], 85.3%.

The values above are taken from ChEMBL document CHEMBL5442219.
